According to patent US20260035367A1 (Celgene Corporation, priority 2021, published 2026):
Read-outs that look alike come from different tables or passages of the source.

Columns and labels:
[1] = target: T1, Recombinant human PKC-theta (His-tagged 362-706) (Homo sapiens, UniProt Q04759); assay: PKC-theta inhibition assay (HTRF KinEASE kit); type: biochemical; conditions: ATP 6.5 μM, STK substrate 525 nM
T1 construct: Recombinant human PKC-theta (His-tagged 362-706); His
Procedure, shortened: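 IC50 values were from 4-parameter logistic fits of percent inhibition, based on acceptor/donor HTRF ratios over 10 semi-log compound doses. Kinase reactions, started with substrate plus ATP, ran 30 min at 25 °C in buffer supplemented with 10 mM MgCl2, 1 mM DTT and 0.1% Tween 20; detection lasted 2 h.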

[2] = target: T2, Recombinant human PKC-delta (His-tagged 345-676) (Homo sapiens, UniProt Q05655); assay: PKC-delta inhibition assay (HTRF KinEASE kit); type: biochemical; conditions: ratio, PKC-theta vs PKC-delta HTRF; for PKC-theta/PKC-delta selectivity (binned): binned A to G
T2 construct: PKC-delta (His-tagged 345-676); His
T2 sequence (Q05655 345-676): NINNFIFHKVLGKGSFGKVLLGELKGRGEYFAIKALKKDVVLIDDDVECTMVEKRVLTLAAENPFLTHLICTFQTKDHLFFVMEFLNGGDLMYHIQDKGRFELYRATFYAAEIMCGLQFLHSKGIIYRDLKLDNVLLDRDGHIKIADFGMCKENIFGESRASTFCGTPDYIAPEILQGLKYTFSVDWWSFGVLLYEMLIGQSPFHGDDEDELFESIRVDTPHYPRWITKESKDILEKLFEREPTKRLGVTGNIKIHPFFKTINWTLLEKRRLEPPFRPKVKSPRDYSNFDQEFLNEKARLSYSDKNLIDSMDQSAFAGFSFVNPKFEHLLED

[3] = test system: IL-2 secretion by human effector memory T cells (TEM); assay: Effector memory T cells IL-2 release assay (CD3/CD28 stimulation, HTRF IL-2 detection); type: cell-based; conditions: 24 h; for IC50: Homo sapiens, T-cell
Procedure, shortened: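 Human effector memory T cells from healthy-donor buffy coats were exposed in triplicate to ten semi-log doses of compound in 0.1% DMSO. The cells were stimulated and incubated 24 h at 37 °C. Secreted IL-2 in the supernatant was measured by HTRF.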

[4] = binned A to H, read-out: PKC-theta HTRF pIC50 (binned) (converted)
[5] = read-out: PKC-theta HTRF pIC50 (converted)
[6] = binned A to G, read-out: PKC-theta IL2 pIC50 (binned) (converted)
[7] = read-out: PKC-theta IL2 pIC50 (converted)

T1 sequence (Q04759 362-706): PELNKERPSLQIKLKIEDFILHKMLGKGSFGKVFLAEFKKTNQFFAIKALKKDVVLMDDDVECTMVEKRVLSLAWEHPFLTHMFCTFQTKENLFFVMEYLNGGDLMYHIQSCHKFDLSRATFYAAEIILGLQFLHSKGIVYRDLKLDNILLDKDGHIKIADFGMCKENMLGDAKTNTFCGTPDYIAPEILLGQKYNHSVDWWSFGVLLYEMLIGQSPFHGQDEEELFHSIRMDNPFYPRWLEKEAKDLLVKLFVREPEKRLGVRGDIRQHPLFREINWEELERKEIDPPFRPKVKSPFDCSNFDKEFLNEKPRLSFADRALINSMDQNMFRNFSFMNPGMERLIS

SMILES	IC50 [1, 4]	IC50 [1, 5]	PKC-theta/PKC-delta selectivity [2]	PKC-theta/PKC-delta selectivity (binned) [2]	IC50 [3, 6]	IC50 [3, 7]	PKC-theta IL2 pIC50 (binned) ([3]; binned A to G)	PKC-theta IL2 pIC50 [3]
CC1(C)C(=O)Nc2nccc(-c3cc(C(F)(F)F)cc(N4CCN[C@H]5COC[C@H]54)n3)c21 [Example 192]	3.16 to 10 nM	3.98 nM	31	B (a ratio of between 30 and 50)	100 to 316 nM	158 nM		
CC[C@@H]1CN(c2cc(C(F)(F)F)cc(-c3ccnc4c3C(C)(O)C(=O)N4)n2)CCN1 (stereo partly drawn) [Example 72]	10 to 31.6 nM	25.1 nM	12	D (a ratio of between 10 and 20)	100 to 316 nM	316 nM		
C[C@H]1CN(c2cc(C(F)(F)F)cc(-c3ccnc4c3[C@](C)(O)C(=O)N4)n2)CCN1 (single isomer, unassigned) [Example 95]	1 to 3.16 nM	2 nM	15	D (a ratio of between 10 and 20)	31.6 to 100 nM	31.6 nM		
C[C@@H]1CN(c2cccc(-c3ccnc4[nH]c(=O)[nH]c34)c2)C[C@H](C)N1 [Example 11]	> 1000 nM	2510 nM	4	F (a ratio of between 1 and 5)	> 1000 nM	6310 nM		
CCC1(C)C(=O)Nc2ncc(F)c(-c3cc(C(F)(F)F)cc(N4CCNC[C@H]4C)n3)c21 (stereo partly drawn) [Example 157]	3.16 to 10 nM	7.94 nM	20	C (a ratio of between 20 and 30)	100 to 316 nM	158 nM		
CO[C@]1(C)C(=O)Nc2nccc(-c3cc(Cl)cc(N4CCNC[C@H]4C)n3)c21 (single isomer, unassigned) [Example 172]	3.16 to 10 nM	10 nM	13	D (a ratio of between 10 and 20)	100 to 316 nM	100 nM		
CC1C(=O)Nc2ncnc(-c3cccc(N4CCNCC4)c3)c21 (stereo not drawn) [Example 24]	316 to 1000 nM	1000 nM	1	F (a ratio of between 1 and 5)	> 1000 nM	2000 nM		
CN1CCN(c2cccc(-c3ccnc4[nH]c(=O)[nH]c34)c2)CC1 [Example 17]	> 1000 nM	5010 nM	2	F (a ratio of between 1 and 5)	> 1000 nM	10000 nM		
CC[C@H]1CN(c2cc(Cl)cc(-c3ccnc4c3[C@@](C)(OC)C(=O)N4)n2)CCN1 (single isomer, unassigned) [Example 151]	10 to 31.6 nM	12.6 nM	15	D (a ratio of between 10 and 20)		126 nM	E (a measured pIC50 of between 6.5 and 7.0)	
CCC1C(=O)Nc2nccc(-c3cccc(N4CCNCC4)c3)c21 (stereo not drawn) [Example 21]	316 to 1000 nM	316 nM	1	F (a ratio of between 1 and 5)	316 to 1000 nM	1000 nM		
CC[C@]1(C)C(=O)Nc2nccc(-c3cc(Cl)cc(N4CCNC[C@H]4C)n3)c21 (single isomer, unassigned) [Example 165]	3.16 to 10 nM	6.31 nM	12	D (a ratio of between 10 and 20)	31.6 to 100 nM	63.1 nM		
C[C@H]1NCCN(c2cc(C(F)(F)F)cc(-c3ccnc4c3C(C)(C)C(=O)N4)n2)[C@H]1C [Example 168]	0.316 to 1 nM	0.501 nM	14	D (a ratio of between 10 and 20)			B (a measured pIC50 of between 8.0 and 8.5)	8.1
C[C@@H]1CN[C@@H](C)CN1c1cc(C(F)(F)F)cc(-c2ccnc3c2C(C)(C)C(=O)N3)n1 [Example 177]	3.16 to 10 nM	6.31 nM	24	C (a ratio of between 20 and 30)	31.6 to 100 nM	63.1 nM		
C[C@H]1CN(c2ccc(Cl)c(-c3ccnc4c3[C@](C)(O)C(=O)N4)c2)CCN1 [Example 107]	31.6 to 100 nM	63.1 nM	7	E (a ratio of between 5 and 10)	316 to 1000 nM	501 nM		
CCC1(O)C(=O)Nc2nccc(-c3cc(Cl)cc(N4CCN[C@@H](C)C4)n3)c21 (stereo partly drawn) [Example 113]	1 to 3.16 nM	3.16 nM	22	C (a ratio of between 20 and 30)	31.6 to 100 nM	79.4 nM		
CC1(C)C(=O)Nc2nccc(-c3cc(C(F)(F)F)cc(C4(CO)CCNC4)n3)c21 (stereo not drawn) [Example 70]	1 to 3.16 nM	2.51 nM	30	B (a ratio of between 30 and 50)	316 to 1000 nM	398 nM		
CC[C@H]1CN(c2cc(C(F)(F)F)cc(-c3ccnc4c3[C@](C)(OC)C(=O)N4)n2)CCN1 (single isomer, unassigned) [Example 191]	10 to 31.6 nM	15.8 nM	22	C (a ratio of between 20 and 30)	100 to 316 nM	251 nM		
